US8076487B2, “Pyridone derivative and herbicide” (Kumiai Chemical Industry Co., Ltd., priority 2006, dated 2011)

Legend:
Type in all cases: in vivo
[1] = system: barnyardgrass (Echinochloa crus-galli (L.) P. Beauv. var. crus-galli); experiment: Test Example 3: herbicidal effect by application to upland field (foliage treatment); conditions: 14th day after application; for herbicidal effect, Barnyardgrass: foliage treatment, 1,000 g active ingredient per 1 hectare, greenhouse; for herbicidal effect (index), Barnyardgrass: foliage treatment, plants grown two weeks, 1,000 g active ingredient per hectare
Method: (§1) [table] Test Example 3 Test on Herbicidal Effect by Application to Upland Field In a 80 cm2 plastic pot, field soil was filled. Seeds of barnyardgrass (Echinochloa crus-galli (L.) P. Beauv. var. crus-galli), green foxtail (Setaria viridis (L.) P. Beauv.), velvetleaf (Abutilon theophrasti medicus), and slender amaranth (Amaranthus viridis L.) were sown and allowed to grow for two weeks in a greenhouse. Thereafter, the wettable powder prepared according to Formulation Example 1 was diluted in water and a 1,000 liter equivalent amount per 1 hectare so that the active ingredient becomes 1,000 g per 1 hectare was sprayed using a small sprayer from a top of the plants through its entire body for foliage treatment. Then, on the 14th day after the application to the plants grew in a greenhouse, the herbicidal effect was examined in accordance with a standard shown in Table 34.

[2] = system: slender amaranth (Amaranthus viridis L.); experiment: as above; conditions: 14th day after application; for herbicidal effect, Slender Amaranth: foliage treatment, 1,000 g active ingredient per 1 hectare, greenhouse; for herbicidal effect (index), Slender Amaranth: foliage treatment, plants grown two weeks, 1,000 g active ingredient per hectare
Method: as §1

[3] = system: velvetleaf (Abutilon theophrasti medicus); experiment: as above; conditions: 14th day after application; for herbicidal effect, Velvetleaf: foliage treatment, 1,000 g active ingredient per 1 hectare, greenhouse; for herbicidal effect (index), Velvetleaf: foliage treatment, plants grown two weeks, 1,000 g active ingredient per hectare
Method: as §1

[4] = system: green foxtail (Setaria viridis (L.) P. Beauv.); experiment: as above; conditions: 14th day after application; for herbicidal effect, Green Foxtail: foliage treatment, 1,000 g active ingredient per 1 hectare, greenhouse; for herbicidal effect (index), Green Foxtail: foliage treatment, plants grown two weeks, 1,000 g active ingredient per hectare
Method: as §1

[5] = system: early watergrass (Echinochloa oryzicola Vasing); experiment: Test Example 1: herbicidal effect by soil application to paddy field; conditions: paddy field soil application; active ingredient 1,000 g per 1 hectare; wettable powder added dropwise to water surface the day after sowing; examined on the 21st day after application
Procedure, shortened: (§2)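 Plants were sown in flooded (3 cm) paddy soil and evaluated for herbicidal effect 21 days after soil application in a greenhouse.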

[6] = system: Japanese bulrush (Scirpus juncoides Roxb.); experiment: as above; conditions: paddy field soil application; active ingredient 1,000 g per 1 hectare; wettable powder added dropwise to water surface the day after sowing; examined on the 21st day after application
Procedure, shortened: as §2

[7] = system: heartshape false pickerelweed (Monochoria vaginalis (Burm.f.) C.Presl); experiment: as above; conditions: paddy field soil application; active ingredient 1,000 g per 1 hectare; wettable powder added dropwise to water surface the day after sowing; examined on the 21st day after application
Procedure, shortened: as §2

Row | Compound | herbicidal effect, Barnyardgrass [1] | herbicidal effect, Slender Amaranth [2] | herbicidal effect, Velvetleaf [3] | herbicidal effect, Green Foxtail [4] | herbicidal effect, Echinochloa oryzicola Vasing [5] | herbicidal effect, Scirpus juncoides Roxb. [6] | herbicidal effect, Monochoria vaginalis (Burm. f.) C. Presl [7] | herbicidal effect (index), Barnyardgrass [1] | herbicidal effect (index), Slender Amaranth [2] | herbicidal effect (index), Velvetleaf [3] | herbicidal effect (index), Green Foxtail [4]
1 | Cn1ncc(C(=O)c2ccc(C(F)(F)F)n(-c3ccc(OC(F)(F)F)cc3)c2=O)c1O [IV-67] | 4 (70 to less than 90% of herbicidal effect and crop phytotoxicity) | 5 (90% or more of herbicidal effect and crop phytotoxicity) | 5 (90% or more of herbicidal effect and crop phytotoxicity) | 4 (70 to less than 90% of herbicidal effect and crop phytotoxicity) | 5 (90% or more of herbicidal effect and crop phytotoxicity) | 5 (90% or more of herbicidal effect and crop phytotoxicity) | 5 (90% or more of herbicidal effect and crop phytotoxicity) | – | – | – | –
2 | CSCCCn1c(C(F)(F)F)ccc(C(=O)C2=C(O)C3CCC(C3)C2=O)c1=O (stereo not shown) [III-31] | 5 (90% or more of herbicidal effect and crop phytotoxicity) | 5 (90% or more of herbicidal effect and crop phytotoxicity) | 5 (90% or more of herbicidal effect and crop phytotoxicity) | 5 (90% or more of herbicidal effect and crop phytotoxicity) | 5 (90% or more of herbicidal effect and crop phytotoxicity) | 5 (90% or more of herbicidal effect and crop phytotoxicity) | 5 (90% or more of herbicidal effect and crop phytotoxicity) | – | – | – | –
3 | CC(CCCCn1c(C(F)(F)F)ccc(C(=O)C2=C(O)CCCC2=O)c1=O)=C(F)F [I-28] | – | – | – | – | 5 (90% or more of herbicidal effect and crop phytotoxicity) | 4 (70 to less than 90% of herbicidal effect and crop phytotoxicity) | 5 (90% or more of herbicidal effect and crop phytotoxicity) | 5 (90% or more of herbicidal effect and crop phytotoxicity) | 5 (90% or more of herbicidal effect and crop phytotoxicity) | 5 (90% or more of herbicidal effect and crop phytotoxicity) | 5 (90% or more of herbicidal effect and crop phytotoxicity)
4 | O=C1CCCC(O)=C1C(=O)c1ccc(C(F)(F)F)n(CSC2CCCCC2)c1=O [I-61] | – | – | – | – | 5 (90% or more of herbicidal effect and crop phytotoxicity) | 4 (70 to less than 90% of herbicidal effect and crop phytotoxicity) | 5 (90% or more of herbicidal effect and crop phytotoxicity) | 5 (90% or more of herbicidal effect and crop phytotoxicity) | 5 (90% or more of herbicidal effect and crop phytotoxicity) | 5 (90% or more of herbicidal effect and crop phytotoxicity) | 4 (70 to less than 90% of herbicidal effect and crop phytotoxicity)
5 | CC1CC(C)C(O)=C(C(=O)c2ccc(C(F)(F)F)n(C)c2=O)C1=O (stereo not shown) [II-7] | 4 (70 to less than 90% of herbicidal effect and crop phytotoxicity) | 5 (90% or more of herbicidal effect and crop phytotoxicity) | 5 (90% or more of herbicidal effect and crop phytotoxicity) | 4 (70 to less than 90% of herbicidal effect and crop phytotoxicity) | 5 (90% or more of herbicidal effect and crop phytotoxicity) | 5 (90% or more of herbicidal effect and crop phytotoxicity) | 5 (90% or more of herbicidal effect and crop phytotoxicity) | – | – | – | –
6 | CS(=O)(=O)Cn1c(C(F)(F)F)ccc(C(=O)C2=C(O)CCCC2=O)c1=O [I-47] | – | – | – | – | 5 (90% or more of herbicidal effect and crop phytotoxicity) | 5 (90% or more of herbicidal effect and crop phytotoxicity) | 5 (90% or more of herbicidal effect and crop phytotoxicity) | 5 (90% or more of herbicidal effect and crop phytotoxicity) | 5 (90% or more of herbicidal effect and crop phytotoxicity) | 5 (90% or more of herbicidal effect and crop phytotoxicity) | 4 (70 to less than 90% of herbicidal effect and crop phytotoxicity)
7 | Cn1ncc(C(=O)c2ccc(C(F)(F)F)n(CC3CCCO3)c2=O)c1OS(=O)(=O)c1ccc([N+](=O)[O-])cc1 (stereo not shown) [IV-142] | 5 (90% or more of herbicidal effect and crop phytotoxicity) | 5 (90% or more of herbicidal effect and crop phytotoxicity) | 5 (90% or more of herbicidal effect and crop phytotoxicity) | 5 (90% or more of herbicidal effect and crop phytotoxicity) | 5 (90% or more of herbicidal effect and crop phytotoxicity) | 5 (90% or more of herbicidal effect and crop phytotoxicity) | 5 (90% or more of herbicidal effect and crop phytotoxicity) | – | – | – | –
8 | CCSCn1c(C(F)(F)F)ccc(C(=O)C2=C(O)C3CCC(C3)C2=O)c1=O (stereo not shown) [III-26] | 5 (90% or more of herbicidal effect and crop phytotoxicity) | 5 (90% or more of herbicidal effect and crop phytotoxicity) | 5 (90% or more of herbicidal effect and crop phytotoxicity) | 5 (90% or more of herbicidal effect and crop phytotoxicity) | – | – | – | – | – | – | –
9 | O=C(C1=C(O)C2C=CC(C2)C1=O)c1ccc(C(F)(F)F)n(CC2CCCO2)c1=O (stereo not shown) [III-43] | 5 (90% or more of herbicidal effect and crop phytotoxicity) | 5 (90% or more of herbicidal effect and crop phytotoxicity) | 5 (90% or more of herbicidal effect and crop phytotoxicity) | 3 (50 to less than 70% of herbicidal effect and crop phytotoxicity) | 5 (90% or more of herbicidal effect and crop phytotoxicity) | 5 (90% or more of herbicidal effect and crop phytotoxicity) | 5 (90% or more of herbicidal effect and crop phytotoxicity) | – | – | – | –
10 | CC(C)=CCCn1c(C(F)(F)F)ccc(C(=O)C2=C(O)CCCC2=O)c1=O [I-13] | – | – | – | – | 5 (90% or more of herbicidal effect and crop phytotoxicity) | 5 (90% or more of herbicidal effect and crop phytotoxicity) | 5 (90% or more of herbicidal effect and crop phytotoxicity) | 5 (90% or more of herbicidal effect and crop phytotoxicity) | 5 (90% or more of herbicidal effect and crop phytotoxicity) | 5 (90% or more of herbicidal effect and crop phytotoxicity) | 5 (90% or more of herbicidal effect and crop phytotoxicity)
11 | CC(C)=CCCn1c(C(F)(F)F)ccc(C(=O)c2cnn(C)c2O)c1=O [IV-15] | 4 (70 to less than 90% of herbicidal effect and crop phytotoxicity) | 5 (90% or more of herbicidal effect and crop phytotoxicity) | 5 (90% or more of herbicidal effect and crop phytotoxicity) | 5 (90% or more of herbicidal effect and crop phytotoxicity) | 5 (90% or more of herbicidal effect and crop phytotoxicity) | 5 (90% or more of herbicidal effect and crop phytotoxicity) | 5 (90% or more of herbicidal effect and crop phytotoxicity) | – | – | – | –
12 | CC[S+]([O-])Cn1c(C(F)(F)F)ccc(C(=O)C2=C(O)C3CCC(C3)C2=O)c1=O (stereo not shown) [III-27] | 5 (90% or more of herbicidal effect and crop phytotoxicity) | 5 (90% or more of herbicidal effect and crop phytotoxicity) | 5 (90% or more of herbicidal effect and crop phytotoxicity) | 5 (90% or more of herbicidal effect and crop phytotoxicity) | – | – | – | – | – | – | –
13 | CCCS(=O)(=O)Cc1c(Br)cc(C(=O)C2=C(O)CCCC2=O)c(=O)n1-c1ccccc1 [I-237] | 5 (90% or more of herbicidal effect and crop phytotoxicity) | 5 (90% or more of herbicidal effect and crop phytotoxicity) | 5 (90% or more of herbicidal effect and crop phytotoxicity) | 4 (70 to less than 90% of herbicidal effect and crop phytotoxicity) | – | – | – | – | – | – | –
